Measurements from US11999941B2, “Composition suitable for protecting microorganisms” (SOCIÉTÉ DES PRODUITS NESTLÉ S.A., priority 2015, dated 2024).

Test system: Bifidobacterium longum BL999
Experiment: Pre-screening of single ingredients as protective agent: viability loss after spray-drying, storage and reconstitution
Format: cell-based
Details: for protective effect during drying: individual ingredient 18.2 wt % with maltodextrin DE12 and sodium ascorbate, compared to the reference; for storage stability / losses during storage and reconstitution: storage at T=37° C.; for storage stability / losses during storage and reconstitution / viability loss after 8 weeks: aw=0.22, after spray-drying; for viability loss after 8 weeks: 8 weeks storage at T=37° C.
Method: A fermentation medium suitable for the growth of Bifidobacterium longum BL999 was inoculated with 2% frozen-thawed bacteria.
The centrifuged biomass was then conditioned according to the following process. […] Then 300 g of centrifuged biomass were filled into a beaker, which was placed in an ice water bath. The total solids content of the biomass was measured and the protective agent solution was added at a ratio of protective agents to biomass of 55/45 (based on dry weight). The mixture was gently agitated in the ice water bath for one hour. The pH was then adjusted to pH7.
The conditioned concentrate was then spray-dried on a lab-scale spray-dryer (Buechi, B-290, Flawil, Switzerland). The air temperature was 140° C. and the tower temperature was adjusted by the concentrate flow to T=70° C. During drying, the beaker containing the concentrate was cooled in an ice water bath.
In a first round of trials, 38 ingredients were selected as potential protective agents. The effect of those ingredients on the stability of Bifidobacterium longum BL999 was tested by spray-drying biomass with a protective agent comprising maltodextrin DE12, sodium ascorbate and one single additional ingredient from the list of 38 compounds to be screened in the following concentrations:
This control was used as a reference to evaluate the effect of the protective agents on the stability of Bifidobacterium longum BL999 during spray-drying, storage and reconstitution.
The 38 culture powders and the control were prepared as described above, the conditioning being carried out with one of the 38 protective agents.
The cell concentration of B. longum in the powder was detected by classical plating methods. Such classical plating methods are summarized in the microbiology book: James Monroe Jay, Martin J. Loessner, David A. Golden. […] Modern food microbiology. 7th edition, Springer Science, New York, N.Y. The cells were counted in the concentrate before drying, in the culture powder directly after drying and after 2, 3, 4, 6, 8 and/or 12 weeks storage in a climatic chamber at T=37° C. above saturated potassium acetate solution (aw=0.22). The cell counts after drying and after storage were determined after reconstitution of the powder with a reconstitution medium, as known by the person skilled in the art, who is well aware of the above-mentioned plating methods.
The following formulae were used for the evaluation of the data:
where X0 is the number of micro-organisms at time t=0 and Xt the number of microorganisms at time t. When the microbiological counts were measured in k replicates, x0 is the average number of micro-organisms at time t=0 and, xt is the average number of micro-organisms at time t, the average log loss at time t is given by:
The tested individual ingredients were selected among several groups of molecules: sugars, sugar alcohols, amino acids and proteins. All tested ingredients within a group were spray-dried on the same day and the reference was spray dried again with each group, also on the same day.

[1] = individual ingredient 18.2 wt %

Row | Compound | protective effect during drying (spray-drying) | storage stability / losses during storage and reconstitution [1] | viability loss after 8 weeks [1] | other results
1 | OCC(O)CO [glycerol] | light protective effect | majority of the bacteria of this variant died already after two weeks storage |  | 
2 | NCCCC[C@H](N)C(=O)O [lysine, L-lysine] |  | lowest losses during storage and reconstitution |  | 
3 | OC[C@@H](O)[C@@H](O)[C@H](O)[C@@H](O)CO [sorbitol] | light protective effect |  | lowest | 
4 | C[C@H](N)C(=O)O [alanine, L-alanine] |  | lowest losses during storage and reconstitution |  | 
5 | OC[C@@H](O)[C@@H](O)[C@H](O)[C@H](O)CO [mannitol] | light protective effect |  | lowest | 
6 | OC[C@H]1O[C@@](CO)(O[C@H]2O[C@H](CO)[C@@H](O)[C@H](O)[C@H]2O)[C@@H](O)[C@@H]1O [sucrose] |  | most efficient ingredient |  | 
7 | OC[C@@H](O)[C@H](O)[C@@H](O)CO [xylitol] | light protective effect |  |  | 
8 | O=C1O[C@H]([C@@H](O)CO)C([O-])=C1O.[Na+] [sodium ascorbate] | does not show significant effect on the bacterial survival during the drying process |  |  | 
9 | N=C(N)NCCC[C@H](N)C(=O)O [arginine, L-arginine] |  | lowest losses during storage and reconstitution |  | 
10 | O[C@H]1[C@H](O)[C@@H](O)[C@H](O)[C@@H](O)[C@H]1O [myo-inositol] |  |  | lowest | 
11 | N[C@@H](CS)C(=O)O [cysteine, L-cysteine] |  | lowest losses during storage and reconstitution |  | viability loss during drying (spray-drying, protective agent of maltodextrin DE12 68.2 wt %, sodium ascorbate 13.6 wt %, individual ingredient 18.2 wt %): 0.2 log
12 | OC[C@@H](O)[C@@H](O[C@@H]1O[C@H](CO)[C@H](O)[C@H](O)[C@H]1O)[C@H](O)[C@@H](O)CO [lactitol] |  |  | lowest | 
